6 compounds from EP0113880A2, “Derivatives from 2-azabicyclo(2.2.1)heptane, process for their preparation, agents containing them and their use, and 2-azabicyclo(2.2.1)heptane derivatives as intermediates, and process for their preparation” (HOECHST AKTIENGESELLSCHAFT, priority 1982, dated 1984) can be followed below.

The test has as its system durch 310 ng Angiotensin I ausgelösten Pressorreaktion. Kind of test: Inhibition of the angiotensin I induced pressor response after intraduodenal administration to the anaesthetised rat. In kind it is in vivo, Ratte. Particulars: dose giving 50 % inhibition of the pressor response to 310 ng angiotensin I, 30 min after application. On the procedure: Intraduodenale Gabe an der narkotisierten Ratte, 50 % Hemmung der durch 310 ng Angiotensin I ausgelösten Pressorreaktion 30 min. nach Applikation in der Dosis .............- ED50: […]

As usually defined, the ED50 is the dose at which the effect has come halfway, by size or by number of responders.

Counter-ions that a name gives are not always drawn. Like-named read-outs stand apart in the source and are kept apart here.

Consider “N-(1-S-Carbethoxy-3-phenyl-propyl)-S-alanyl-2-azabicyclo [2.2.1 ] heptan-3-S-exo-carbonsäure Hydrochlorid”, for which the ED50 was 0.7 mg/kg.

With `C[C@H](N[C@@H](CCc1ccccc1)C(=O)O)C(=O)N1C2CCC(C2)[C@H]1C(=O)O` (stereo partly drawn) [n=1, X=C6H5, Y=H, Z=H, R^1=H, R^2=CH3, R=H, endo] [N-(1-S-Carboxy-3-phenyl-propyl)-S-alanyl-2-azabicyclo , [2.2.1] heptan-3-S-endo-carbonsäure], the ED50 (30 min) amounted to 1.6 mg/kg.

In the case of `C[C@H](N[C@@H](CCc1ccccc1)C(=O)O)C(=O)N1C2CCC(C2)[C@H]1C(=O)O` (stereo partly drawn) [n=1, X=C6H5, Y=H, Z=H, R^1=H, R^2=CH3, R=H, exo] [N-(1-S-Carboxy-3-phenyl-propyl)-S-alanyl-2-azabicyclo [2.2.1 J heptan-3-S-exo-carbonsäure], the ED50 (30 min) was 1.8 mg/kg.

Regarding `CCOC(=O)[C@H](CC(=O)c1ccccc1)N[C@@H](C)C(=O)N1[C@H]2CC[C@H](C2)[C@H]1C(=O)O` [N-(1-S-Carbethoxy-3-phenyl-3-oxo-propyl)-S-alanyl-2-azabicyclo [2.2.1] heptan-3-S-endo-carbonsäure. Hydrochlorid], the ED50 (0.5 h, read-out: ED50) is 0.75 mg/kg.

`CCOC(=O)[C@H](CC(=O)c1ccccc1)N[C@@H](C)C(=O)N1C2CCC(C2)[C@H]1C(=O)O` (stereo partly drawn) [N-(1-S-Carbethoxy-3-oxo-3-phenyl-propyl)-S-alanyl-2-azabicyclo [2.2.1] heptan-3-S-exo-carbonsäure]: the median effective dose (ED50) was 0.9 mg/kg.

Turning to “N-(1-S-Carbethoxy-3-phenyl-propyl)-S-alanyl-2-azabicyclo [ 2.2.1] heptan-3-S-endo-carbonsäure-Hydrochlorid”, the ED50 was determined as 0.5 mg/kg.
